Test results taken from ChEMBL document CHEMBL5316357, “Discovery of Linvencorvir (RG7907), a Hepatitis B Virus Core Protein Allosteric Modulator, for the Treatment of Chronic HBV Infection” (J Med Chem, 2023).

Key:
[1] = Oral bioavailability in male Wistar Han rat at 3 mg/kg by LC-MS/MS analysis; assay type: ADME, organism-based; details: in vivo
[2] = Volume of distribution at steady state in Wistar Han rat at 2 mg/kg,iv by LC-MS/MS analysis; assay type: ADME, organism-based; details: in vivo, read-out: Vdss
[3] = Oral bioavailability in female cynomolgus monkey at 3 mg/kg by LC-MS/MS analysis; assay type: ADME, organism-based, Macaca fascicularis; details: in vivo
[4] = AUClast in female Wistar Han rat at 3 mg/kg,po by LC-MS/MS analysis; assay type: ADME, organism-based; set-up: dose 3 mg/kg, route po; details: in vivo
[5] = AUClast in male minipig at 3 mg/kg,po by LC-MS/MS analysis; assay type: ADME, organism-based, Sus scrofa domesticus; set-up: dose 3 mg/kg, route po; details: pig, in vivo
[6] = Oral bioavailability in female minipig at 10 mg/kg by LC-MS/MS analysis; assay type: ADME, organism-based, Sus scrofa domesticus; details: pig, in vivo
[7] = Cmax in female cynomolgus monkey at 3 mg/kg,po by LC-MS/MS analysis; assay type: ADME, organism-based, Macaca fascicularis; set-up: dose 3 mg/kg, route po; details: in vivo
[8] = Half life in female minipig at 30 mg/kg,po by LC-MS/MS analysis; assay type: ADME, organism-based, Sus scrofa domesticus; details: pig, in vivo
[9] = Oral bioavailability in male minipig at 10 mg/kg by LC-MS/MS analysis; assay type: ADME, organism-based, Sus scrofa domesticus; details: pig, in vivo
[10] = Half life in male minipig at 30 mg/kg,po by LC-MS/MS analysis; assay type: ADME, organism-based, Sus scrofa domesticus; details: pig, in vivo
[11] = Cmax in female minipig at 30 mg/kg,po by LC-MS/MS analysis; assay type: ADME, organism-based, Sus scrofa domesticus; set-up: dose 30 mg/kg, route po; details: pig, in vivo
[12] = Half life in male cynomolgus monkey at 3 mg/kg,po by LC-MS/MS analysis; assay type: ADME, organism-based, Macaca fascicularis; details: in vivo
[13] = Cmax in male Wistar Han rat at 10 mg/kg,po by LC-MS/MS analysis; assay type: ADME, organism-based; set-up: dose 10 mg/kg, route po; details: in vivo
[14] = Oral bioavailability in female Wistar Han rat at 3 mg/kg by LC-MS/MS analysis; assay type: ADME, organism-based; details: in vivo
[15] = Tmax in female cynomolgus monkey at 30 mg/kg,po by LC-MS/MS analysis; assay type: ADME, organism-based, Macaca fascicularis; details: in vivo
[16] = Clearance in Wistar Han rat at 2 mg/kg,iv by LC-MS/MS analysis; assay type: ADME, organism-based; details: in vivo
[17] = Clearance in rat hepatocyte at 2 uM measured upto 120 mins by LC-MS/MS analysis; assay type: ADME, cell-based; details: hepatocytes
[18] = Oral bioavailability in rat plasma at 3 mg/kg; assay type: ADME, organism-based; details: plasma
[19] = Cmax in male minipig at 10 mg/kg,po by LC-MS/MS analysis; assay type: ADME, organism-based, Sus scrofa domesticus; set-up: dose 10 mg/kg, route po; details: pig, in vivo
[20] = Clearance in minipig at 2 mg/kg,iv by LC-MS/MS analysis; assay type: ADME, organism-based, Sus scrofa domesticus; details: pig, in vivo
Cytochrome P450 3A4 = Cytochrome P450 3A4 (Homo sapiens, UniProt P08684); assay: Inhibition of CYP3A4 (unknown origin); assay type: ADME
Chain of Cytochrome P450 3A4 (P08684 whole entry): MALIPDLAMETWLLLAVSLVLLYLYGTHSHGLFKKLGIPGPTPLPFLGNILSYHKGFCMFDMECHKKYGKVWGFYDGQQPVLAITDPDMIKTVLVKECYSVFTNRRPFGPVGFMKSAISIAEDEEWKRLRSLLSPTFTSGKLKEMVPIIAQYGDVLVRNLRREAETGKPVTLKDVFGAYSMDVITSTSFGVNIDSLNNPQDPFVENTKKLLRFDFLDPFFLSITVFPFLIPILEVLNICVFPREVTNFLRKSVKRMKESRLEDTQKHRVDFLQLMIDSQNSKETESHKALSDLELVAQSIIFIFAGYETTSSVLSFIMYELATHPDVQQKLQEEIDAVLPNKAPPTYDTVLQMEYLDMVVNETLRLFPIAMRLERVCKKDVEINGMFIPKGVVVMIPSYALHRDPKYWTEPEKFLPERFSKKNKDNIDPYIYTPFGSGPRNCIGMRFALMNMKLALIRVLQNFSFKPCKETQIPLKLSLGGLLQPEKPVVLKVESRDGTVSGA

[21] = Oral bioavailability in female Wistar Han rat at 30 mg/kg by LC-MS/MS analysis; assay type: ADME, organism-based; details: in vivo
[22] = Volume of distribution at steady state in minipig at 2 mg/kg,iv by LC-MS/MS analysis; assay type: ADME, organism-based, Sus scrofa domesticus; details: pig, in vivo, read-out: Vdss
[23] = Cmax in male minipig at 30 mg/kg,po by LC-MS/MS analysis; assay type: ADME, organism-based, Sus scrofa domesticus; set-up: dose 30 mg/kg, route po; details: pig, in vivo
[24] = Ratio of AUC (0 to infinity) in liver to plasma of mouse at 3 mg/kg,po; assay type: ADME, organism-based; details: read-out: Ratio AUC
[25] = Oral bioavailability in female cynomolgus monkey at 30 mg/kg by LC-MS/MS analysis; assay type: ADME, organism-based, Macaca fascicularis; details: in vivo
[26] = AUClast in female Wistar Han rat at 30 mg/kg,po by LC-MS/MS analysis; assay type: ADME, organism-based; set-up: dose 30 mg/kg, route po; details: in vivo
[27] = Half life in female Wistar Han rat at 3 mg/kg,po by LC-MS/MS analysis; assay type: ADME, organism-based; details: in vivo
[28] = Half life in male Wistar Han rat at 30 mg/kg,po by LC-MS/MS analysis; assay type: ADME, organism-based; details: in vivo
[29] = Cmax in female minipig at 3 mg/kg,po by LC-MS/MS analysis; assay type: ADME, organism-based, Sus scrofa domesticus; set-up: dose 3 mg/kg, route po; details: pig, in vivo
[30] = Half life in female cynomolgus monkey at 30 mg/kg,po by LC-MS/MS analysis; assay type: ADME, organism-based, Macaca fascicularis; details: in vivo
[31] = Tmax in female Wistar Han rat at 30 mg/kg,po by LC-MS/MS analysis; assay type: ADME, organism-based; details: in vivo
[32] = Half life in female Wistar Han rat at 30 mg/kg,po by LC-MS/MS analysis; assay type: ADME, organism-based; details: in vivo
[33] = Volume of distribution at steady state in cynomolgus monkey at 2 mg/kg,iv by LC-MS/MS analysis; assay type: ADME, organism-based, Macaca fascicularis; details: in vivo, read-out: Vdss
[34] = Half life in female cynomolgus monkey at 3 mg/kg,po by LC-MS/MS analysis; assay type: ADME, organism-based, Macaca fascicularis; details: in vivo
[35] = Tmax in female minipig at 3 mg/kg,po by LC-MS/MS analysis; assay type: ADME, organism-based, Sus scrofa domesticus; details: pig, in vivo
[36] = Cmax in male Wistar Han rat at 3 mg/kg,po by LC-MS/MS analysis; assay type: ADME, organism-based; set-up: dose 3 mg/kg, route po; details: in vivo
[37] = Oral bioavailability in male cynomolgus monkey at 3 mg/kg by LC-MS/MS analysis; assay type: ADME, organism-based, Macaca fascicularis; details: in vivo
[38] = Tmax in male Wistar Han rat at 3 mg/kg,po by LC-MS/MS analysis; assay type: ADME, organism-based; details: in vivo
[39] = Cmax in male cynomolgus monkey at 3 mg/kg,po by LC-MS/MS analysis; assay type: ADME, organism-based, Macaca fascicularis; set-up: dose 3 mg/kg, route po; details: in vivo
[40] = Half life in minipig at 2 mg/kg,iv by LC-MS/MS analysis; assay type: ADME, organism-based, Sus scrofa domesticus; details: pig, in vivo
[41] = Half life in male minipig at 10 mg/kg,po by LC-MS/MS analysis; assay type: ADME, organism-based, Sus scrofa domesticus; details: pig, in vivo
Cytochrome P450 2C19 = Cytochrome P450 2C19 (Homo sapiens, UniProt P33261); assay: Inhibition of CYP2C19 (unknown origin); assay type: ADME
Chain of Cytochrome P450 2C19 (P33261 whole entry): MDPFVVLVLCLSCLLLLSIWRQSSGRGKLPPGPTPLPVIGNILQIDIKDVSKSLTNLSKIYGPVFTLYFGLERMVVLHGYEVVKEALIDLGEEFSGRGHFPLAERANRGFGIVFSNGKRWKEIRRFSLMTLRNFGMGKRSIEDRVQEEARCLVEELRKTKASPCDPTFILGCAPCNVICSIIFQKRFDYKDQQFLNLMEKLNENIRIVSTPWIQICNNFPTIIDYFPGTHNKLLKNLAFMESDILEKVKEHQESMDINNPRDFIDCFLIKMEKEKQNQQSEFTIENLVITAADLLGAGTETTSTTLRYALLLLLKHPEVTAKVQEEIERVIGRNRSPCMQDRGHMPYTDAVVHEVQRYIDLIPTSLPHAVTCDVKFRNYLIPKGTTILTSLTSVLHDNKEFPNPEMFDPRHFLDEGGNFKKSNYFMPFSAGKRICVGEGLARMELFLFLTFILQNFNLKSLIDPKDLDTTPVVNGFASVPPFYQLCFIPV

[42] = AUC (0-infinity) in mouse plasma at 3 mg/kg,po; assay type: ADME, organism-based; set-up: dose 3 mg/kg, route po; details: in vivo
[43] = Oral bioavailability in male cynomolgus monkey at 30 mg/kg by LC-MS/MS analysis; assay type: ADME, organism-based, Macaca fascicularis; details: in vivo
[44] = Tmax in female cynomolgus monkey at 10 mg/kg,po by LC-MS/MS analysis; assay type: ADME, organism-based, Macaca fascicularis; details: in vivo
[45] = AUClast in female minipig at 10 mg/kg,po by LC-MS/MS analysis; assay type: ADME, organism-based, Sus scrofa domesticus; set-up: dose 10 mg/kg, route po; details: pig, in vivo
[46] = Half life in male cynomolgus monkey at 30 mg/kg,po by LC-MS/MS analysis; assay type: ADME, organism-based, Macaca fascicularis; details: in vivo
[47] = AUC (0-infinity) in rat plasma at 3 mg/kg,po; assay type: ADME, organism-based; set-up: dose 3 mg/kg, route po; details: plasma
[48] = AUClast in female cynomolgus monkey at 3 mg/kg,po by LC-MS/MS analysis; assay type: ADME, organism-based, Macaca fascicularis; set-up: dose 3 mg/kg, route po; details: in vivo
[49] = AUClast in male cynomolgus monkey at 3 mg/kg,po by LC-MS/MS analysis; assay type: ADME, organism-based, Macaca fascicularis; set-up: dose 3 mg/kg, route po; details: in vivo

bioavailability [1]: 13.5% | Vd [2]: 1.34 L/kg | bioavailability [3]: 14.5% | AUC(0-t) [4]: 220 ng·h/mL | AUC(0-t) [5]: 228 ng·h/mL | bioavailability [6]: 11.4% | Cmax [7]: 100 ng/mL | half-life [8]: 8.26 h | bioavailability [9]: 18.6% | half-life [10]: 7.64 h | Cmax [11]: 429 ng/mL | half-life [12]: 6.25 h | Cmax [13]: 512 ng/mL | bioavailability [14]: 14.3% | Tmax [15]: 2 h | clearance [16]: 30.5 mL/min/kg | CLhep predicted at 2 µM [17]: 11 mL/min/kg | bioavailability [18]: 14% | Cmax [19]: 248 ng/mL | clearance [20]: 24.1 mL/min/kg | IC50 (Cytochrome P450 3A4): > 50 µM | bioavailability [21]: 105% | Vd [22]: 1.12 L/kg | Cmax [23]: 768 ng/mL | Kp [24]: 32 | bioavailability [25]: 18.6% | AUC(0-t) [26]: 17800 ng·h/mL | half-life [27]: 2.15 h | half-life [28]: 2.79 h | Cmax [29]: 46 ng/mL | half-life [30]: 5.98 h | Tmax [31]: 2 h | half-life [32]: 1.8 h | Vd [33]: 0.67 L/kg | half-life [34]: 5.92 h | Tmax [35]: 1 h | Cmax [36]: 70.2 ng/mL | bioavailability [37]: 10.3% | Tmax [38]: 0.5 h | Cmax [39]: 64 ng/mL | half-life [40]: 2.19 h | half-life [41]: 7.28 h | IC50 (Cytochrome P450 2C19): > 50 µM | AUC [42]: 275 ng·h/mL | bioavailability [43]: 25.8% | Tmax [44]: 0.5 h | AUC(0-t) [45]: 768 ng·h/mL | half-life [46]: 6.12 h | AUC(0-inf) [47]: 70 ng·h/mL | AUC(0-t) [48]: 253 ng·h/mL | AUC(0-t) [49]: 280 ng·h/mL
Structure (SMILES): CCOC(=O)C1=C(CN2CCN3C(=O)N(CC(C)(C)C(=O)O)C[C@@H]3C2)NC(c2nccs2)=N[C@H]1c1cccc(F)c1C [LINVENCORVIR]
